Measurements from patent US12180187B2, “1-phenyl-5-azinylpyrazolyl-3-oxyalkyl acids and their use for controlling unwanted plant growth” (BAYER AKTIENGESELLSCHAFT, priority 2019, dated 2024).

Assays:
[1] = test system: POLCO; assay: Pre-emergence action at 320 g/ha against POLCO; type: in vivo, Fallopia convolvulus (Polygonum convolvulus); conditions: visual scoring after about 3 weeks vs untreated controls
Summary of the method: (§1)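 Effect rated visually (% vs untreated control) about 3 weeks after pre-emergence spraying of WP/EC formulation onto soil; spray carried 0.5% additive at 600 l/ha water.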

[2] = test system: LOLRI; assay: Pre-emergence action at 320 g/ha against LOLRI; type: in vivo, Lolium rigidum; conditions: visual scoring after about 3 weeks vs untreated controls
Summary of the method: as §1

[3] = test system: AVEFA; assay: Pre-emergence action at 320 g/ha against AVEFA; type: in vivo; conditions: visual scoring after about 3 weeks vs untreated controls
Summary of the method: as §1

[4] = test system: PHBPU; assay: Pre-emergence action at 320 g/ha against PHBPU; type: in vivo; conditions: visual scoring after about 3 weeks vs untreated controls
From the text: b) Seeds of monocotyledonous and dicotyledonous weed plants and crop plants are placed in plastic or organic planting pots and covered with soil. The compounds of the invention, formulated in the form of wettable powders (WP) or as emulsion concentrates (EC), are then applied onto the surface of the covering soil as aqueous suspension or emulsion with addition of 0.5% additive at a water application rate of 600 l/ha (converted). After the treatment, the pots are placed in a greenhouse and kept under good growth conditions for the trial plants. After about 3 weeks, the effect of the preparations is scored visually in comparison with untreated controls as percentages. For example, 100% activity=the plants have died, 0% activity=like control plants. Tables 13 to 26 below show the effects of selected compounds of the general formula (I) on various harmful plants and at an application rate corresponding to 320 g/ha, which were obtained by the experimental procedure mentioned above.

[5] = test system: VIOTR; assay: Pre-emergence action at 320 g/ha against VIOTR; type: in vivo, Viola tricolor; conditions: dosage 320 g/ha
Summary of the method: as §1

[6] = test system: DIGSA; assay: Pre-emergence action at 320 g/ha against DIGSA; type: in vivo, Digitaria sanguinalis; conditions: visual scoring after about 3 weeks vs untreated controls
Summary of the method: as §1

[7] = test system: ALOMY; assay: Pre-emergence action at 320 g/ha against ALOMY; type: in vivo, Alopecurus myosuroides; conditions: scored visually after about 3 weeks vs untreated controls (100% = plants have died)
Summary of the method: as §1

[8] = test system: AMARE; assay: Pre-emergence action at 320 g/ha against AMARE; type: in vivo, Amaranthus retroflexus; conditions: visual scoring after about 3 weeks vs untreated controls
Summary of the method: as §1

[9] = test system: VERPE; assay: Pre-emergence action at 320 g/ha against VERPE; type: in vivo, Veronica persica; conditions: visual scoring after about 3 weeks vs untreated controls
Summary of the method: as §1

[10] = test system: SETVI; assay: Pre-emergence action at 320 g/ha against SETVI; type: in vivo, Setaria viridis; conditions: visual scoring after about 3 weeks vs untreated controls
Summary of the method: as §1

[11] = test system: ECHGC; assay: Pre-emergence action at 320 g/ha against ECHGC; type: in vivo, Echinochloa crus-galli; conditions: visual scoring after about 3 weeks vs untreated controls
Summary of the method: as §1

[12] = test system: MATIN; assay: Pre-emergence action at 320 g/ha against MATIN; type: in vivo, Tripleurospermum inodorum (Matricaria inodora); conditions: visual scoring after about 3 weeks vs untreated controls
Summary of the method: as §1

[13] = test system: SETVI; assay: Pre-emergence action against SETVI, 1280 g/ha; type: in vivo, Setaria viridis; conditions: visual scoring after about 3 weeks vs untreated controls, 100% = plants have died, 0% = like control plants
Summary of the method: (§2)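 Mono- and dicot weed seeds sown in sandy loam were treated on the covering soil surface with WP or EC formulations plus 0.5% additive at 600 L water/ha. Pots stayed in a greenhouse; damage was scored visually after ~3 weeks as percent versus untreated controls (100% = dead).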

[14] = test system: MATIN; assay: Pre-emergence action against MATIN, 1280 g/ha; type: in vivo, Tripleurospermum inodorum (Matricaria inodora); conditions: scored visually after about 3 weeks vs untreated controls (100% = plants have died)
Summary of the method: as §2

[15] = test system: SETVI; assay: Post-emergence action against SETVI, 1.28 kg/ha; type: in vivo, Setaria viridis; conditions: dosage 1280 g/ha, visual rating about 3 weeks after treatment vs untreated controls
Summary of the method: (§3)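 Post-emergence greenhouse spray, one-leaf stage (2–3 wk after sowing), sandy loam. WP/EC, aqueous + 0.5% additive, 600 L/ha water. Visual % activity vs untreated, ~3 wk after treatment; 100% = plants dead.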

[16] = test system: LOLRI; assay: Pre-emergence action against LOLRI, 1280 g/ha; type: in vivo, Lolium rigidum; conditions: visual scoring after about 3 weeks vs untreated controls, 100% = plants have died, 0% = like control plants
Summary of the method: as §2

[17] = test system: POAAN; assay: Post-emergence action against POAAN, 1.28 kg/ha; type: in vivo, Poa annua; conditions: dosage 1280 g/ha, visual rating about 3 weeks after treatment vs untreated controls
Summary of the method: as §3

[18] = test system: VIOTR; assay: Post-emergence action at 320 g/ha against VIOTR; type: in vivo, Viola tricolor; conditions: visual rating about 3 weeks after treatment vs untreated controls
From the text: (§4) Accordingly, the compounds of the invention have good herbicidal action against a broad spectrum of weed grasses and broad-leaved weeds and are therefore suitable for controlling unwanted vegetation by the post-emergence method. • b) Seeds of monocotyledonous and dicotyledonous weeds and crop plants are placed in sandy loam in plastic or organic planting pots, covered with soil and cultivated in a greenhouse under controlled growth conditions. 2 to 3 weeks after sowing, the test plants are treated at the one-leaf stage. The compounds of the invention, formulated in the form of wettable powders (WP) or as emulsion concentrates (EC), are then sprayed onto the green parts of the plants as aqueous suspension or emulsion with addition of 0.5% additive at a water application rate of 600 l/ha (converted). After the test plants have been kept in the greenhouse under optimum growth conditions for about 3 weeks, the activity of the preparations is rated visually in comparison to untreated controls. For example, 100% activity=the plants have died, 0% activity=like control plants. Tables 39 to 49 below show the effects of selected compounds of the general formula (I) according to Tables 1 and 2 on various harmful plants and at an application rate corresponding to 320 g/ha, which were obtained by the experimental procedure mentioned above.

[19] = test system: MATIN; assay: Post-emergence action against MATIN, 1.28 kg/ha; type: in vivo, Tripleurospermum inodorum (Matricaria inodora); conditions: dosage 1280 g/ha, visual rating about 3 weeks after treatment vs untreated controls (100% = plants died)
Summary of the method: as §3

[20] = test system: POAAN; assay: Pre-emergence action against POAAN, 1280 g/ha; type: in vivo, Poa annua; conditions: visual scoring after about 3 weeks vs untreated controls, 100% = plants have died, 0% = like control plants
Summary of the method: as §2

[21] = test system: STEME; assay: Post-emergence action against STEME, 1.28 kg/ha; type: in vivo, Stellaria media; conditions: dosage 1280 g/ha, visual rating about 3 weeks after treatment vs untreated controls (100% = plants died)
Summary of the method: as §3

[22] = test system: LOLRI; assay: Post-emergence action against LOLRI, 1.28 kg/ha; type: in vivo, Lolium rigidum; conditions: dosage 1280 g/ha, visual rating about 3 weeks after treatment vs untreated controls
Summary of the method: as §3

[23] = test system: ECHCG; assay: Post-emergence action against ECHCG, 1.28 kg/ha; type: in vivo, Echinochloa crus-galli; conditions: dosage 1280 g/ha, visual rating about 3 weeks after treatment vs untreated controls
Summary of the method: as §3

[24] = test system: VERPE; assay: Pre-emergence action against VERPE, 1280 g/ha; type: in vivo, Veronica persica; conditions: scored visually after about 3 weeks vs untreated controls (100% = plants have died)
Summary of the method: as §2

[25] = test system: POLCO; assay: Post-emergence action at 320 g/ha against POLCO; type: in vivo, Fallopia convolvulus (Polygonum convolvulus); conditions: visual rating about 3 weeks after treatment vs untreated controls
From the text: as §4

[26] = test system: ECHCG; assay: Pre-emergence action against ECHCG, 1280 g/ha; type: in vivo, Echinochloa crus-galli; conditions: visual scoring after about 3 weeks vs untreated controls, 100% = plants have died, 0% = like control plants
Summary of the method: as §2

[27] = test system: ALOMY; assay: Post-emergence action against ALOMY, 320 g/ha; type: in vivo, Alopecurus myosuroides; conditions: dosage 320 g/ha, visual rating about 3 weeks after treatment vs untreated controls (100% = plants died)
From the text: as §4

[28] = test system: AMARE; assay: Pre-emergence action against AMARE, 1280 g/ha; type: in vivo, Amaranthus retroflexus; conditions: scored visually after about 3 weeks vs untreated controls (100% = plants have died)
Summary of the method: as §2

[29] = test system: AMARE; assay: Post-emergence action at 320 g/ha against AMARE; type: in vivo, Amaranthus retroflexus; conditions: visual rating about 3 weeks after treatment vs untreated controls
From the text: as §4

[30] = test system: STEME; assay: Pre-emergence action against STEME, 1280 g/ha; type: in vivo, Stellaria media; conditions: scored visually after about 3 weeks vs untreated controls (100% = plants have died)
Summary of the method: as §2

[31] = test system: AVEFA; assay: Post-emergence action at 320 g/ha against AVEFA; type: in vivo; conditions: visual rating about 3 weeks after treatment vs untreated controls
From the text: as §4

[32] = test system: VERPE; assay: Post-emergence action against VERPE, 1.28 kg/ha; type: in vivo, Veronica persica; conditions: dosage 1280 g/ha, visual rating about 3 weeks after treatment vs untreated controls (100% = plants died)
Summary of the method: as §3

[33] = test system: AMARE; assay: Post-emergence action against AMARE, 1.28 kg/ha; type: in vivo, Amaranthus retroflexus; conditions: dosage 1280 g/ha, visual rating about 3 weeks after treatment vs untreated controls (100% = plants died)
Summary of the method: as §3

O=C(O)COc1nn(-c2ccccc2F)c(-c2ccc(F)nc2)c1F [VII-115]
100%: Pre-emergence action against VIOTR in % [5] | Pre-emergence action against DIGSA in % [6] | Pre-emergence action at 320 g/ha against ALOMY in % [7] | Pre-emergence action against AMARE in % [8] | Pre-emergence action against SETVI in % [10]
90%: Pre-emergence action against LOLRI in % [2] | Pre-emergence action against AVEFA in % [3] | Pre-emergence action against PHBPU in % [4] | Pre-emergence action against VERPE in % [9]
80%: Pre-emergence action against POLCO in % [1]

C[C@@H](Oc1nn(-c2ccccc2F)c(-c2cncc(F)c2)c1Br)C(=O)O [VII-128]
80%: Pre-emergence action against AVEFA in % [3]
100%: Pre-emergence action against LOLRI in % [2] | Pre-emergence action against VIOTR in % [5] | Pre-emergence action against DIGSA in % [6] | Pre-emergence action at 320 g/ha against ALOMY in % [7] | Pre-emergence action against AMARE in % [8] | Pre-emergence action against VERPE in % [9] | Pre-emergence action against SETVI in % [10]
90%: Pre-emergence action against POLCO in % [1] | Pre-emergence action against ECHGC in % [11] | Pre-emergence action against MATIN in % [12] | Pre-emergence action against PHBPU in % [4]

CCOC(=O)COc1nn(-c2ccccc2F)c(-c2ccnc(F)c2)c1Br [VIII-002]
90%: Post-emergence action against SETVI [15] | Pre-emergence action against POLCO in % [1] | Post-emergence action against MATIN [19] | Pre-emergence action against VERPE [24] | Pre-emergence action at 320 g/ha against ALOMY in % [7] | Post-emergence action against ALOMY [27] | Pre-emergence action against STEME [30] | Post-emergence action against AVEFA in % [31] | Post-emergence action against VERPE [32]
100%: Pre-emergence action against SETVI [13] | Pre-emergence action against MATIN [14] | Pre-emergence action against LOLRI [16] | Post-emergence action against POAAN [17] | Pre-emergence action against POAAN [20] | Post-emergence action against STEME [21] | Post-emergence action against LOLRI [22] | Post-emergence action against ECHCG [23] | Pre-emergence action against VIOTR in % [5] | Pre-emergence action against DIGSA in % [6] | Pre-emergence action against ECHCG [26] | Pre-emergence action against AMARE [28] | Pre-emergence action against AMARE in % [8] | Pre-emergence action against SETVI in % [10] | Post-emergence action against AMARE [33]
80%: Post-emergence action against VIOTR in % [18] | Post-emergence action against POLCO in % [25] | Pre-emergence action against VERPE in % [9] | Post-emergence action against AMARE in % [29]
